Data: patent US8076487B2, “Pyridone derivative and herbicide” (Kumiai Chemical Industry Co., Ltd., priority 2006, dated 2011)

What was measured:
Assay type in all cases: in vivo
[1] = test system: Japanese bulrush (Scirpus juncoides Roxb.); experiment: Test Example 1: herbicidal effect by soil application to paddy field; details: paddy field soil application; active ingredient 1,000 g per 1 hectare; wettable powder added dropwise to water surface the day after sowing; examined on the 21st day after application
In short: (§1)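 Under greenhouse conditions, seeds sown on puddled paddy soil in 100 cm2 pots under 3 cm of standing water received the test compound; injury was assessed with a standard scoring scheme three weeks (day 21) after treatment.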

[2] = test system: early watergrass (Echinochloa oryzicola Vasing); experiment: as above; details: paddy field soil application; active ingredient 1,000 g per 1 hectare; wettable powder added dropwise to water surface the day after sowing; examined on the 21st day after application
In short: as §1

[3] = test system: heartshape false pickerelweed (Monochoria vaginalis (Burm.f.) C.Presl); experiment: as above; details: paddy field soil application; active ingredient 1,000 g per 1 hectare; wettable powder added dropwise to water surface the day after sowing; examined on the 21st day after application
In short: as §1

[4] = test system: barnyardgrass (Echinochloa crus-galli (L.) P. Beauv. var. crus-galli); experiment: Test Example 2: herbicidal effect by soil application to upland field; details: soil surface spray, upland field soil, 1,000 g active ingredient per hectare, 21st day after application
In short: (§2)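 Using a small sprayer, we treat the soil surface of pots just after sowing and covering seeds. The aqueous wettable powder supplies 1,000 g a.i./ha in 1,000 L water/ha; after greenhouse growth, injury is scored on day 21 using a standard rating.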

[5] = test system: green foxtail (Setaria viridis (L.) P. Beauv.); experiment: as above; details: soil surface spray, upland field soil, 1,000 g active ingredient per hectare, 21st day after application
In short: as §2

[6] = test system: slender amaranth (Amaranthus viridis L.); experiment: as above; details: soil surface spray, upland field soil, 1,000 g active ingredient per hectare, 21st day after application
In short: as §2

[7] = test system: velvetleaf (Abutilon theophrasti medicus); experiment: as above; details: soil surface spray, upland field soil, 1,000 g active ingredient per hectare, 21st day after application
In short: as §2

[8] = test system: barnyardgrass (Echinochloa crus-galli (L.) P. Beauv. var. crus-galli); experiment: Test Example 3: herbicidal effect by application to upland field (foliage treatment); details: 14th day after application; for herbicidal effect, Barnyardgrass: foliage treatment, 1,000 g active ingredient per 1 hectare, greenhouse; for herbicidal effect (index), Barnyardgrass: foliage treatment, plants grown two weeks, 1,000 g active ingredient per hectare
In short: (§3)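 A single foliar application of a water-diluted wettable powder, at 1,000 g of active ingredient per hectare, was made to plants raised for two weeks from seed in field soil. Herbicidal activity was judged visually after a further 14 days in the greenhouse.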

[9] = test system: green foxtail (Setaria viridis (L.) P. Beauv.); experiment: as above; details: 14th day after application; for herbicidal effect, Green Foxtail: foliage treatment, 1,000 g active ingredient per 1 hectare, greenhouse; for herbicidal effect (index), Green Foxtail: foliage treatment, plants grown two weeks, 1,000 g active ingredient per hectare
In short: as §3

[10] = test system: slender amaranth (Amaranthus viridis L.); experiment: as above; details: 14th day after application; for herbicidal effect, Slender Amaranth: foliage treatment, 1,000 g active ingredient per 1 hectare, greenhouse; for herbicidal effect (index), Slender Amaranth: foliage treatment, plants grown two weeks, 1,000 g active ingredient per hectare
In short: as §3

[11] = test system: velvetleaf (Abutilon theophrasti medicus); experiment: as above; details: 14th day after application; for herbicidal effect, Velvetleaf: foliage treatment, 1,000 g active ingredient per 1 hectare, greenhouse; for herbicidal effect (index), Velvetleaf: foliage treatment, plants grown two weeks, 1,000 g active ingredient per hectare
In short: as §3

CS(=O)(=O)CCCn1c(C(F)(F)F)ccc(C(=O)C2=C(O)C3CCC(C3)C2=O)c1=O (stereo not drawn) [III-33]
herbicidal effect, Scirpus juncoides Roxb. [1]: 5 (90% or more of herbicidal effect and crop phytotoxicity) | herbicidal effect, Echinochloa oryzicola Vasing [2]: 5 (90% or more of herbicidal effect and crop phytotoxicity) | herbicidal effect, Monochoria vaginalis (Burm. f.) C. Presl [3]: 5 (90% or more of herbicidal effect and crop phytotoxicity) | herbicidal effect (index), Barnyardgrass [4]: 4 (70 to less than 90% of herbicidal effect and crop phytotoxicity) | herbicidal effect (index), Green Foxtail [5]: 5 (90% or more of herbicidal effect and crop phytotoxicity) | herbicidal effect (index), Slender Amaranth [6]: 5 (90% or more of herbicidal effect and crop phytotoxicity) | herbicidal effect (index), Velvetleaf [7]: 5 (90% or more of herbicidal effect and crop phytotoxicity) | herbicidal effect, Barnyardgrass [8]: 5 (90% or more of herbicidal effect and crop phytotoxicity) | herbicidal effect, Green Foxtail [9]: 5 (90% or more of herbicidal effect and crop phytotoxicity) | herbicidal effect, Slender Amaranth [10]: 5 (90% or more of herbicidal effect and crop phytotoxicity) | herbicidal effect, Velvetleaf [11]: 5 (90% or more of herbicidal effect and crop phytotoxicity)

CC(C)S(=O)(=O)Cn1c(C(F)(F)F)ccc(C(=O)C2=C(O)CCCC2=O)c1=O [I-54]
herbicidal effect, Scirpus juncoides Roxb. [1]: 5 (90% or more of herbicidal effect and crop phytotoxicity) | herbicidal effect, Echinochloa oryzicola Vasing [2]: 5 (90% or more of herbicidal effect and crop phytotoxicity) | herbicidal effect, Monochoria vaginalis (Burm. f.) C. Presl [3]: 5 (90% or more of herbicidal effect and crop phytotoxicity) | herbicidal effect (index), Barnyardgrass [4]: 5 (90% or more of herbicidal effect and crop phytotoxicity) | herbicidal effect (index), Green Foxtail [5]: 4 (70 to less than 90% of herbicidal effect and crop phytotoxicity) | herbicidal effect (index), Slender Amaranth [6]: 5 (90% or more of herbicidal effect and crop phytotoxicity) | herbicidal effect (index), Velvetleaf [7]: 5 (90% or more of herbicidal effect and crop phytotoxicity) | herbicidal effect (index), Barnyardgrass [8]: 5 (90% or more of herbicidal effect and crop phytotoxicity) | herbicidal effect (index), Green Foxtail [9]: 5 (90% or more of herbicidal effect and crop phytotoxicity) | herbicidal effect (index), Slender Amaranth [10]: 5 (90% or more of herbicidal effect and crop phytotoxicity) | herbicidal effect (index), Velvetleaf [11]: 5 (90% or more of herbicidal effect and crop phytotoxicity)

CSCCn1c(C(F)(F)F)ccc(C(=O)C2=C(O)C3CCC(C3)C2=O)c1=O (stereo not drawn) [III-28]
herbicidal effect, Scirpus juncoides Roxb. [1]: 5 (90% or more of herbicidal effect and crop phytotoxicity) | herbicidal effect, Echinochloa oryzicola Vasing [2]: 5 (90% or more of herbicidal effect and crop phytotoxicity) | herbicidal effect, Monochoria vaginalis (Burm. f.) C. Presl [3]: 5 (90% or more of herbicidal effect and crop phytotoxicity) | herbicidal effect (index), Barnyardgrass [4]: 5 (90% or more of herbicidal effect and crop phytotoxicity) | herbicidal effect (index), Green Foxtail [5]: 5 (90% or more of herbicidal effect and crop phytotoxicity) | herbicidal effect (index), Slender Amaranth [6]: 5 (90% or more of herbicidal effect and crop phytotoxicity) | herbicidal effect (index), Velvetleaf [7]: 5 (90% or more of herbicidal effect and crop phytotoxicity) | herbicidal effect, Barnyardgrass [8]: 5 (90% or more of herbicidal effect and crop phytotoxicity) | herbicidal effect, Green Foxtail [9]: 5 (90% or more of herbicidal effect and crop phytotoxicity) | herbicidal effect, Slender Amaranth [10]: 5 (90% or more of herbicidal effect and crop phytotoxicity) | herbicidal effect, Velvetleaf [11]: 5 (90% or more of herbicidal effect and crop phytotoxicity)

Cc1nn(C)c(O)c1C(=O)c1ccc(C(F)(F)F)n(-c2ccc(F)c(F)c2)c1=O [IV-86]
herbicidal effect, Scirpus juncoides Roxb. [1]: 4 (70 to less than 90% of herbicidal effect and crop phytotoxicity) | herbicidal effect, Echinochloa oryzicola Vasing [2]: 5 (90% or more of herbicidal effect and crop phytotoxicity) | herbicidal effect, Monochoria vaginalis (Burm. f.) C. Presl [3]: 5 (90% or more of herbicidal effect and crop phytotoxicity) | herbicidal effect (index), Barnyardgrass [4]: 5 (90% or more of herbicidal effect and crop phytotoxicity) | herbicidal effect (index), Green Foxtail [5]: 5 (90% or more of herbicidal effect and crop phytotoxicity) | herbicidal effect (index), Slender Amaranth [6]: 5 (90% or more of herbicidal effect and crop phytotoxicity) | herbicidal effect (index), Velvetleaf [7]: 5 (90% or more of herbicidal effect and crop phytotoxicity) | herbicidal effect, Barnyardgrass [8]: 5 (90% or more of herbicidal effect and crop phytotoxicity) | herbicidal effect, Green Foxtail [9]: 4 (70 to less than 90% of herbicidal effect and crop phytotoxicity) | herbicidal effect, Slender Amaranth [10]: 5 (90% or more of herbicidal effect and crop phytotoxicity) | herbicidal effect, Velvetleaf [11]: 5 (90% or more of herbicidal effect and crop phytotoxicity)

CCCn1c(C(F)(F)F)ccc(C(=O)C2=C(O)C3CCC(C3)C2=O)c1=O (stereo not drawn) [III-3]
herbicidal effect, Scirpus juncoides Roxb. [1]: 5 (90% or more of herbicidal effect and crop phytotoxicity) | herbicidal effect, Echinochloa oryzicola Vasing [2]: 5 (90% or more of herbicidal effect and crop phytotoxicity) | herbicidal effect, Monochoria vaginalis (Burm. f.) C. Presl [3]: 5 (90% or more of herbicidal effect and crop phytotoxicity) | herbicidal effect (index), Barnyardgrass [4]: 5 (90% or more of herbicidal effect and crop phytotoxicity) | herbicidal effect (index), Green Foxtail [5]: 5 (90% or more of herbicidal effect and crop phytotoxicity) | herbicidal effect (index), Slender Amaranth [6]: 5 (90% or more of herbicidal effect and crop phytotoxicity) | herbicidal effect (index), Velvetleaf [7]: 5 (90% or more of herbicidal effect and crop phytotoxicity) | herbicidal effect, Barnyardgrass [8]: 5 (90% or more of herbicidal effect and crop phytotoxicity) | herbicidal effect, Green Foxtail [9]: 5 (90% or more of herbicidal effect and crop phytotoxicity) | herbicidal effect, Slender Amaranth [10]: 5 (90% or more of herbicidal effect and crop phytotoxicity) | herbicidal effect, Velvetleaf [11]: 5 (90% or more of herbicidal effect and crop phytotoxicity)

COc1ccccc1-n1c(C(F)(F)F)ccc(C(=O)C2=C(O)CCCC2=O)c1=O [I-76]
herbicidal effect, Scirpus juncoides Roxb. [1]: 5 (90% or more of herbicidal effect and crop phytotoxicity) | herbicidal effect, Echinochloa oryzicola Vasing [2]: 5 (90% or more of herbicidal effect and crop phytotoxicity) | herbicidal effect, Monochoria vaginalis (Burm. f.) C. Presl [3]: 5 (90% or more of herbicidal effect and crop phytotoxicity) | herbicidal effect (index), Barnyardgrass [4]: 5 (90% or more of herbicidal effect and crop phytotoxicity) | herbicidal effect (index), Green Foxtail [5]: 5 (90% or more of herbicidal effect and crop phytotoxicity) | herbicidal effect (index), Slender Amaranth [6]: 5 (90% or more of herbicidal effect and crop phytotoxicity) | herbicidal effect (index), Velvetleaf [7]: 5 (90% or more of herbicidal effect and crop phytotoxicity) | herbicidal effect (index), Barnyardgrass [8]: 5 (90% or more of herbicidal effect and crop phytotoxicity) | herbicidal effect (index), Green Foxtail [9]: 3 (50 to less than 70% of herbicidal effect and crop phytotoxicity) | herbicidal effect (index), Slender Amaranth [10]: 5 (90% or more of herbicidal effect and crop phytotoxicity) | herbicidal effect (index), Velvetleaf [11]: 5 (90% or more of herbicidal effect and crop phytotoxicity)
